Results as given in the supplement of paper PMC11451515.

System: NOMO1
Assay: cell viability relative to DMSO control; higher = less cytotoxic
Conditions: 48 h
How it was run: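 NOMO1 or SEM (500 cells/well) or P12-Ichikawa (1000 cells/well) leukemia cells were adapted for at least four passages in each medium. They were seeded in 1536-well plates (5 μl) and pin-dosed with library compounds in DMSO over an 11-point threefold series, 47 μM to 0.79 nM. CellTiter-Glo One luminescence was read after 48 h at 37°C. Viability is the per-plate percentage relative to DMSO wells, with cell-free wells as background.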

[1] = HPLM + 10% dialyzed FBS, 0.000781 µM
[2] = HPLM + 10% dialyzed FBS, 0.00234 µM
[3] = HPLM + 10% dialyzed FBS, 0.00702 µM
[4] = HPLM + 10% dialyzed FBS, 0.0211 µM
[5] = HPLM + 10% dialyzed FBS, 0.0632 µM
[6] = HPLM + 10% dialyzed FBS, 0.19 µM
[7] = HPLM + 10% dialyzed FBS, 0.569 µM
[8] = HPLM + 10% dialyzed FBS, 1.71 µM
[9] = HPLM + 10% dialyzed FBS, 5.12 µM
[10] = HPLM + 10% dialyzed FBS, 15.4 µM
[11] = HPLM + 10% dialyzed FBS, 46.1 µM
[12] = RPMI 5 mM glucose + 10% FBS, 0.000781 µM
[13] = RPMI 5 mM glucose + 10% FBS, 0.00234 µM
[14] = RPMI 5 mM glucose + 10% FBS, 0.00702 µM
[15] = RPMI 5 mM glucose + 10% FBS, 0.0211 µM
[16] = RPMI 5 mM glucose + 10% FBS, 0.0632 µM
[17] = RPMI 5 mM glucose + 10% FBS, 0.19 µM
[18] = RPMI 5 mM glucose + 10% FBS, 0.569 µM
[19] = RPMI 5 mM glucose + 10% FBS, 1.71 µM
[20] = RPMI 5 mM glucose + 10% FBS, 5.12 µM
[21] = RPMI 5 mM glucose + 10% FBS, 15.4 µM
[22] = RPMI 5 mM glucose + 10% FBS, 46.1 µM
[23] = RPMI 5 mM glucose + 10% dialyzed FBS, 0.000781 µM
[24] = RPMI 5 mM glucose + 10% dialyzed FBS, 0.00234 µM
[25] = RPMI 5 mM glucose + 10% dialyzed FBS, 0.00702 µM
[26] = RPMI 5 mM glucose + 10% dialyzed FBS, 0.0211 µM
[27] = RPMI 5 mM glucose + 10% dialyzed FBS, 0.0632 µM
[28] = RPMI 5 mM glucose + 10% dialyzed FBS, 0.19 µM
[29] = RPMI 5 mM glucose + 10% dialyzed FBS, 0.569 µM
[30] = RPMI 5 mM glucose + 10% dialyzed FBS, 1.71 µM
[31] = RPMI 5 mM glucose + 10% dialyzed FBS, 5.12 µM
[32] = RPMI 5 mM glucose + 10% dialyzed FBS, 15.4 µM
[33] = RPMI 5 mM glucose + 10% dialyzed FBS, 46.1 µM

Row | SMILES | cell viability [1] | cell viability [2] | cell viability [3] | cell viability [4] | cell viability [5] | cell viability [6] | cell viability [7] | cell viability [8] | cell viability [9] | cell viability [10] | cell viability [11] | cell viability [12] | cell viability [13] | cell viability [14] | cell viability [15] | cell viability [16] | cell viability [17] | cell viability [18] | cell viability [19] | cell viability [20] | cell viability [21] | cell viability [22] | cell viability [23] | cell viability [24] | cell viability [25] | cell viability [26] | cell viability [27] | cell viability [28] | cell viability [29] | cell viability [30] | cell viability [31] | cell viability [32] | cell viability [33]
1 | COc1cc2nc(N3CCN(C(=O)c4ccco4)CC3)nc(N)c2cc1OC | 77.8% | 103% | 93.7% | 97% | 98.3% | 105% | 105% | 92.8% | 91.8% | 43% | 5.27% | 72.1% | 78.4% | 81.6% | 83.9% | 87.5% | 91.9% | 82.2% | 85.1% | 90.7% | 95.9% | 4.8% | 72% | 83.6% | 82.1% | 80.5% | 90% | 92.2% | 95.2% | 98.2% | 80.4% | 88.4% | 4.29%
2 | COC1=CC2=C(C=C1CC3=C(F)C(=CC=C3)Cl)C(=O)\C(=C/N2[C@H](CO)C(C)C)C(O)=O | 122% | 142% | 123% | 128% | 114% | 131% | 124% | 118% | 127% | 89.6% | 27.7% | 115% | 117% | 109% | 104% | 115% | 129% | 108% | 102% | 110% | 102% | 14.7% | 110% | 118% | 138% | 130% | 131% | 129% | 123% | 118% | 123% | 115% | 24.7%
3 | NC(=O)Cc1cccc(C(=O)c2ccccc2)c1N | 79.5% | 98.2% | 122% | 95.4% | 108% | 109% | 110% | 102% | 108% | 96.8% | 102% | 92.3% | 101% | 88.4% | 91.2% | 96.8% | 88% | 84.7% | 98.8% | 85.2% | 93.7% | 81.9% | 97.4% | 87.3% | 96.1% | 82.7% | 101% | 98.3% | 91.6% | 86.9% | 95.6% | 77.8% | 88.1%
4 | COc1ccc(CC2SC(=O)NC2=O)cc1C(=O)NCc1ccc(C(F)(F)F)cc1 (stereo not drawn) | 84.2% | 83.3% | 90.7% | 86.1% | 79.4% | 85.5% | 99.3% | 99.2% | 83% | 82.1% | 86.3% | 75.9% | 88.2% | 94% | 88% | 81.7% | 84.1% | 90.1% | 92% | 81.4% | 85.3% | 92% | 89.1% | 89.1% | 86.9% | 96% | 89% | 93.4% | 96.7% | 86.3% | 85.9% | 79.3% | 90.8%
5 | CON(C)C(=O)N1\N=C(/S[C@]1(CCCN)C2=CC=CC=C2)C3=CC(=CC=C3F)F | 65% | 41.6% | 39.2% | 46.7% | 46.2% | 40.4% | 30.8% | 37.2% | 32.1% | 24.7% | 24.1% | 55.1% | 22.8% | 26.3% | 27.1% | 21.7% | 20% | 23.4% | 22.8% | 20.6% | 15.6% | 15.7% | 96% | 30.7% | 36.8% | 35% | 32.2% | 31.2% | 27.9% | 32.6% | 28.5% | 22.6% | 22.5%
6 | NCC/1=C/NC(=S)N1[C@H]2CCC3=C(F)C=C(F)C=C3C2 |  |  |  |  |  |  |  |  |  |  |  | 106% | 108% | 105% | 102% | 112% | 103% | 124% | 106% | 101% | 105% | 79.4% |  |  |  |  |  |  |  |  |  |  | 
7 | CCC1=C2CN3C(=O)\C4=C(/C=C3/C2=NC5=CC=C(O)C=C15)[C@@](O)(CC)C(=O)OC4 | 102% | 96% | 97.8% | 60.5% | 27.1% | 25.9% | 28.2% | 23.4% | 22.8% | 24.8% | 27% | 93% | 95.5% | 92.5% | 91.8% | 18% | 16.6% | 20.7% | 17.4% | 19.6% | 16.6% | 16.1% | 104% | 90.1% | 91.8% | 69.8% | 23.6% | 22.5% | 26.6% | 21% | 22.7% | 22.2% | 21.2%
8 | Clc1ccc(C(Cn2ccnc2)OCc2ccsc2Cl)c(Cl)c1 (stereo not drawn) | 102% | 127% | 114% | 116% | 103% | 98.8% | 108% | 113% | 134% | 117% | 80.6% | 89.7% | 106% | 119% | 102% | 110% | 102% | 119% | 105% | 96.6% | 111% | 94.2% | 88% | 113% | 112% | 129% | 99% | 122% | 118% | 113% | 96.3% | 100% | 73.5%
9 | CC(=O)O[C@@]12CO[C@@H]1C[C@H](O)[C@]3(C)[C@@H]2[C@H](OC(=O)C4=CC=CC=C4)[C@]5(O)C[C@H](O)/C(=C(/[C@@H](O)C3=O)C5(C)C)C | 109% | 133% | 123% | 122% | 130% | 131% | 114% | 121% | 117% | 36.1% | 29.1% | 98.1% | 112% | 111% | 116% | 118% | 108% | 105% | 113% | 109% | 51.8% | 13.3% | 89.8% | 92.8% | 106% | 121% | 113% | 114% | 106% | 111% | 115% | 45.1% | 19.3%
10 | COC(=O)[C@@H]1CC2=CC(=O)CC[C@]2(C)[C@@]23O[C@@H]2C[C@@]2(C)[C@@H](CC[C@@]24CCC(=O)O4)[C@H]13 | 93.6% | 115% | 107% | 121% | 116% | 133% | 122% | 136% | 124% | 123% | 119% | 95.3% | 91.4% | 112% | 106% | 104% | 110% | 116% | 105% | 109% | 102% | 112% | 105% | 121% | 113% | 121% | 110% | 108% | 123% | 141% | 125% | 116% | 120%
11 | CN(C)[C@H]\1[C@@H]2[C@@H](O)[C@H]3\C(=C(O)/[C@]2(O)C(=O)\C(=C1O)C(N)=O)C(=O)C4=C(C=CC=C4O)[C@@]3(C)O | 134% | 117% | 117% | 138% | 127% | 131% | 130% | 108% | 113% | 104% | 30.7% | 112% | 131% | 120% | 135% | 123% | 126% | 122% | 117% | 113% | 119% | 37.1% | 117% | 128% | 117% | 122% | 119% | 128% | 123% | 136% | 105% | 104% | 30.1%
12 | Cc1n[nH]c2ccc(-c3cncc(OC[C@@H](N)Cc4c[nH]c5ccccc45)c3)cc12 |  |  |  |  |  |  |  |  |  |  |  | 108% | 114% | 116% | 118% | 117% | 77.4% | 92.6% | 33.2% | 8.24% | 1.64% | 1.13% | 104% | 112% | 93.1% | 94.6% | 93.1% | 63.5% | 63.6% | 29.6% | 5.35% | 1.27% | 0.733%
13 | CC1(C)NC(=O)N(c2ccc([N+](=O)[O-])c(C(F)(F)F)c2)C1=O | 93.3% | 91.4% | 90% | 107% | 96.2% | 96.9% | 82% | 92.8% | 90% | 90.1% | 82.3% | 92.9% | 95.5% | 90.9% | 94.6% | 92.8% | 88.7% | 90.1% | 97.8% | 86.3% | 82.2% | 76.4% | 80.9% | 87.7% | 90.8% | 86.6% | 86.2% | 82.2% | 89.3% | 85.9% | 86.5% | 77.5% | 82.1%
14 | O=C(N[C@H]1CN2CCC1CC2)c1ccc(Cl)cc1 | 91.3% | 106% | 110% | 138% | 123% | 127% | 118% | 107% | 127% | 103% | 68.1% | 97.8% | 97.1% | 103% | 101% | 114% | 103% | 103% | 94.8% | 92.2% | 102% | 98.3% | 107% | 101% | 97.2% | 91.4% | 108% | 109% | 103% | 92.2% | 103% | 106% | 109%
15 | OC[C@H]1O[C@H](C[C@@H]1O)N2\C=C(\I)C(=O)NC2=O | 107% | 118% | 105% | 126% | 116% | 113% | 114% | 125% | 105% | 91.3% | 79.2% | 112% | 120% | 110% | 113% | 120% | 116% | 127% | 119% | 129% | 115% | 88.6% | 103% | 118% | 114% | 117% | 132% | 117% | 133% | 104% | 97.1% | 98.5% | 86.2%
16 | N[C@@H](Cc1ccc(N(CCCl)CCCl)cc1)C(=O)O |  |  |  |  |  |  |  |  |  |  |  | 124% | 130% | 123% | 142% | 150% | 140% | 137% | 137% | 124% | 44.8% | 23.8% |  |  |  |  |  |  |  |  |  |  | 
